pIC50, pKd: −log10 of the molar value.
What was measured:
[1] = molecular target: KIF11 (Homo sapiens (Human), UniProt P52732); experiment: Enzyme-coupled ATPase assay for inhibition of KIF11; assay type: biochemical; conditions: KIF11 ATPase rate, 1 mM ATP
Experimental: The ATPase rate for Kif11 was monitored using an enzyme-coupled assay. Porcine brain microtubules (Cat #MT002) were purchased from Cytoskeleton (Denver, CO) and polymerized as per manufacturer's instructions and stored at 1 mg/ml at −80° C. GST-tagged Kif11/Eg5 (Cat #EG01-XL) and the Kinesin ELIPA Biochem Kit (Cat #BK060) was also purchased from Cytoskeleton. Taxol, microtubules, 7-methylthioguanosine (MESG), and purine nucleoside phosphorylase (PNP) were added to final concentrations of […], 0.05 mg/mL, […], 1U/m, 1 mM in EPLIA Reaction Buffer and allowed to incubate at room temperature for 15 minutes under rocking. Kif11 was then added at a final concentration of […] and allowed to incubate at room temperature for an additional 15 minutes. Master mix ([…]) was added to a black 384-well plate (Corning 3575), to which […] of DMSO or compound were added to appropriate wells. Plates were incubated at room temperature for 2 hours. ATPase reactions were initiated by addition of 1 mM ATP and monitored by OD340 every 1 minute over the course of 2 hours. The rate of the reaction was taken from the linear part of the resulting curve. IC50 was determined by plotting inhibitor concentration v. ATPase rate.

[2] = molecular target: BTK (Homo sapiens (Human), UniProt Q06187); experiment: KdELECT assay for binding affinity to BTK
BTK, sequence (Q06187 whole entry, the tested form may be a part): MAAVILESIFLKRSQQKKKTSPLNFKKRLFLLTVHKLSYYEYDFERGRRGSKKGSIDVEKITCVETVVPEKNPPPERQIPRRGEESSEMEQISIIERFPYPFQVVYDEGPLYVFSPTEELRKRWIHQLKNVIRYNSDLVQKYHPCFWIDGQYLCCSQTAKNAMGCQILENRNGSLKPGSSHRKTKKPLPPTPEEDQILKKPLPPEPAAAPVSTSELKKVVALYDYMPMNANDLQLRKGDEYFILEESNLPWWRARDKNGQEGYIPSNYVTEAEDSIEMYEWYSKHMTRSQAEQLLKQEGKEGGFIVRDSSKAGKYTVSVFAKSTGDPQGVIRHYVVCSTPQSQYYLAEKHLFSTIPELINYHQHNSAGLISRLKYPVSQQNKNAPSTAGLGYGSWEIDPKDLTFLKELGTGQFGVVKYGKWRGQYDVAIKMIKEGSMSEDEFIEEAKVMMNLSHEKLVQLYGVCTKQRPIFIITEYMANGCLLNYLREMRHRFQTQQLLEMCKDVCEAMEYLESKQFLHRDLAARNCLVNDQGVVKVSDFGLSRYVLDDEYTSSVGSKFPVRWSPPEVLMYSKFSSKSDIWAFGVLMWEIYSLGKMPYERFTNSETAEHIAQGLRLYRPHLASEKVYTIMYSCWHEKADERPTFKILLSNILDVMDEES
Summary of the method: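 Competition binding of test compound against bead-immobilized biotinylated ligand; kinase as T7 phage fusion or HEK-293-expressed DNA-tagged protein. 11-point 3-fold dilution, 0.9% DMSO final, 1 h room temperature with shaking. Bound kinase eluted with 0.5 μM non-biotinylated ligand and quantified by qPCR; Kd derived.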

[3] = molecular target: BRD4-BD1 (Homo sapiens (Human), UniProt O60885); experiment: bromoKdELECT assay for binding affinity to BRD4-BD1
Experimental: (§1) Compounds were tested using a bromoKdELECT assay. T7 phage strains displaying bromodomains were grown in parallel in 24-well blocks in an E. coli host derived from the BL21 strain. E. coli were grown to log-phase and infected with T7 phage from a frozen stock (multiplicity of infection=0.4) and incubated with shaking at 32° C. until lysis (90-150 minutes). The lysates were centrifuged (5,000×g) and filtered (0.2 μm) to remove cell debris. Streptavidin-coated magnetic beads were treated with biotinylated small molecule or acetylated peptide ligands for 30 minutes at room temperature to generate affinity resins for bromodomain assays. The liganded beads were blocked with excess biotin and washed with blocking buffer (SeaBlock (Pierce), 1% BSA, 0.05% Tween 20, 1 mM DTT) to remove unbound ligand and to reduce nonspecific phage binding. Binding reactions were assembled by combining bromodomains, liganded affinity beads, and test compounds in 1×binding buffer (17% SeaBlock, 0.33×PBS, 0.04% Tween 20, 0.02% BSA, 0.004% Sodium azide, 7.4 mM DTT). Test compounds were prepared as 1000X stocks in 100% DMSO. Kds were determined using an 11-point 3-fold compound dilution series with one DMSO control point. All compounds for Kd measurements are distributed by acoustic transfer (non-contact dispensing) in 100% DMSO. The compounds were then diluted directly into the assays such that the final concentration of DMSO was 0.09%. All reactions performed in polypropylene 384-well plates. Each was a final volume of 0.02 ml. The assay plates were incubated at room temperature with shaking for 1 hour and the affinity beads were washed with wash buffer (1×PBS, 0.05% Tween 20). The beads were then resuspended in elution buffer (1×PBS, 0.05% Tween 20, 2 μM non-biotinylated affinity ligand) and incubated at room temperature with shaking for 30 minutes. The bromodomain concentration in the eluates was measured by qPCR.

[4] = molecular target: androgen receptor (Homo sapiens, UniProt P10275); experiment: Radioligand ([3H]methyltrienolone) assay for binding affinity to androgen receptor; conditions: cell cytosol, 1 nM [3H]methyltrienolone
androgen receptor, sequence (P10275 whole entry, looked up): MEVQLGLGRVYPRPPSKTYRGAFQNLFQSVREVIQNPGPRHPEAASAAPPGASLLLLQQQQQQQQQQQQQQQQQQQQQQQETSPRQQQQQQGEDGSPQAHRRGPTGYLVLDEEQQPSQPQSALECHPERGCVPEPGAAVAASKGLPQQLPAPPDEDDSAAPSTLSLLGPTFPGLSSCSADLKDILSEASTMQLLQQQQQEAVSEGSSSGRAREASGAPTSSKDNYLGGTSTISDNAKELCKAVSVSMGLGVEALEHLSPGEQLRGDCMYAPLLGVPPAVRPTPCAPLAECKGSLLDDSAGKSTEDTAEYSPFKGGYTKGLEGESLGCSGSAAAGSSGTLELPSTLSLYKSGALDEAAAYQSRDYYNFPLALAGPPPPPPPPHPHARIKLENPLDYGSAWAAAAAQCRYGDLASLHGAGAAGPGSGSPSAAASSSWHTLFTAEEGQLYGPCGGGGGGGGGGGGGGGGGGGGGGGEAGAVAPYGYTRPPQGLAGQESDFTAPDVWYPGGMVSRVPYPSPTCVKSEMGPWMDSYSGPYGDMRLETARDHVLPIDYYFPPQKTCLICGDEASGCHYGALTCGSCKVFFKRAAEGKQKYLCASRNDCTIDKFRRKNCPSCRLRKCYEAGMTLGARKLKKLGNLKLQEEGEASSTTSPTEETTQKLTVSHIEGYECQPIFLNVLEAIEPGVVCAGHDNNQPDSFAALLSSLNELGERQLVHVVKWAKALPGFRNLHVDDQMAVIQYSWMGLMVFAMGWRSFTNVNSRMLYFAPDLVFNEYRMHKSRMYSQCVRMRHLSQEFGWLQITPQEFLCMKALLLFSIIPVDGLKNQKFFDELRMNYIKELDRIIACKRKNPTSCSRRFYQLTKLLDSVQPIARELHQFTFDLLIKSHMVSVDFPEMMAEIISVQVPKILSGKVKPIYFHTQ
Experimental: Fractions of cell cytosol ([…]) were incubated for 24 hr at 4° C. with 1 nM [^3H]methyltrienolone in the absence or presence of the test compound in a buffer containing 25 mM Hepes-Tris (pH 7.4), 1 mM EDTA, 10 mM Na2MoO4, 2 mM DTT, 5 μM triamcinolone acetonide, and 10% glycerol. Nonspecific binding was determined in the presence of 1 μM testosterone. Following incubation, the samples were filtered rapidly under vacuum through glass fiber filters (GF/B, Packard) presoaked with 0.3% PEI and rinsed several times with ice-cold 50 mM Tris —HCl using a 96-sample cell harvester (Unifilter, Packard). The filters were dried then counted for radioactivity in a scintillation counter (Topcount, Packard) using a scintillation cocktail (Microscint 0, Packard). The results are expressed as a percent inhibition of the control radioligand specific binding. The standard reference compound is testosterone, which is tested in each experiment at several concentrations to obtain a competition curve from which its IC50 is calculated.

[5] = molecular target: BRD4-BD2 (Homo sapiens (Human), UniProt O60885); experiment: bromoKdELECT assay for binding affinity to BRD4-BD2
Experimental: as §1

[6] = molecular target: PLK1 (Homo sapiens (Human), UniProt P53350); experiment: KdELECT assay for binding affinity to PLK1
PLK1, sequence (P53350 whole entry): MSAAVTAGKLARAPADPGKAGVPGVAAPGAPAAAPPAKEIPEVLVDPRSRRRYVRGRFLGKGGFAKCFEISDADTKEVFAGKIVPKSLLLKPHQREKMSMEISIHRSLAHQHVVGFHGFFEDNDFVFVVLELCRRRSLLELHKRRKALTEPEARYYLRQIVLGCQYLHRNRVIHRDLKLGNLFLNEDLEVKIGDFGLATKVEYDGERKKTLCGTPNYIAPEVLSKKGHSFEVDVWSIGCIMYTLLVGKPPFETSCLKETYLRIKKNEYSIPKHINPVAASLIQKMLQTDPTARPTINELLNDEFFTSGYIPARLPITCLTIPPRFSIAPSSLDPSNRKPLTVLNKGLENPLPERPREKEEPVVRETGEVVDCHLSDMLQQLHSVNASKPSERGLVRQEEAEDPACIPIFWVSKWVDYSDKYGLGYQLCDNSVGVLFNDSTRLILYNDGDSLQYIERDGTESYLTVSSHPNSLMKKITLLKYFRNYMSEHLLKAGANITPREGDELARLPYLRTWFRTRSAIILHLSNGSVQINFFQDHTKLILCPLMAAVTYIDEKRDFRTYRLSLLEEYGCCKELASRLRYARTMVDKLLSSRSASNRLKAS
Experimental: Compounds were tested using a KdELECT assay. Kinase-tagged T7 phage strains were prepared in an E. coli host derived from the BL21 strain. E. coli were grown to log-phase and infected with T7 phage and incubated with shaking at 32° C. until lysis. The lysates were centrifuged and filtered to remove cell debris. The remaining kinases were produced in HEK-293 cells and subsequently tagged with DNA for qPCR detection. Streptavidin-coated magnetic beads were treated with biotinylated small molecule ligands for 30 minutes at room temperature to generate affinity resins for kinase assays. The liganded beads were blocked with excess biotin and washed with blocking buffer (SeaBlock (Pierce), 1% BSA, 0.05% Tween 20, 1 mM DTT) to remove unbound ligand and to reduce non-specific binding. Binding reactions were assembled by combining kinases, liganded affinity beads, and test compounds in 1×binding buffer (20% SeaBlock, 0.17×PBS, 0.05% Tween 20, 6 mM DTT). Test compounds were prepared as 111X stocks in 100% DMSO. Kd values were determined using an 11-point 3-fold compound dilution series with three DMSO control points. All compounds for Kd measurements are distributed by acoustic transfer (non-contact dispensing) in 100% DMSO.
The compounds were then diluted directly into the assays such that the final concentration of DMSO was 0.9%. […] The kinase concentration in the eluates was measured by qPCR.

KIF11, sequence (P52732 1-368): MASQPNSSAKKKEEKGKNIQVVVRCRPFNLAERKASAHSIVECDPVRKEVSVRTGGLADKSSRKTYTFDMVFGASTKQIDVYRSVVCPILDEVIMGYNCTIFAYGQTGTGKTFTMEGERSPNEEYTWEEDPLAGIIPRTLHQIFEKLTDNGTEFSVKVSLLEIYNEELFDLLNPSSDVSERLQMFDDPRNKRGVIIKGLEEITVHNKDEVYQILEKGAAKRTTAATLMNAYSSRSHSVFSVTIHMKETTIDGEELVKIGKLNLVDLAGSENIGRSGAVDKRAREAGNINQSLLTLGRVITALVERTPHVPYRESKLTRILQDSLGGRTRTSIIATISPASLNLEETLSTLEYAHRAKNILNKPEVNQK

Structure (SMILES) | pIC50 [1] | pKd [2] | also measured
CN(C/C=C/C(=O)N1CCC[C@@H](n2nc(-c3ccc(Oc4ccccc4)cc3)c3c(N)ncnc32)C1)CCOCCOCCOCCOCCOCCOCCON(C)C(=O)N1N=C(c2cc(F)ccc2F)SC1(CCCN)c1ccccc1 (stereo partly drawn) [Compound I-52] | > 7.30 | > 7.30 | 
Cc1sc2c(c1C)C(c1ccc(Cl)cc1)=N[C@@H](CC(=O)NCCOCCOCCOCCOCCOCCOCCOc1ccc(C(=O)NC3C(C)(C)C(Oc4ccc(C#N)c(Cl)c4)C3(C)C)cc1)c1nnc(C)n1-2 (stereo partly drawn) [Compound I-34] |  |  | pKd [3]: 6.30 to 7.30; pKd [4]: > 7.30; pKd [5]: 6.30 to 7.30
CCC1C(=O)N(C)c2cnc(Nc3ccc(C(=O)NCCN(C)C(=O)CO[C@H]4CC[C@H]5[C@@H]6CC[C@H]7CC(=O)CC[C@]7(C)[C@H]6CC[C@]45C)cc3OC)nc2N1C1CCCC1 (stereo partly drawn) [Compound I-41] |  |  | pKd [6]: > 7.30

Further lines, with some results ahead:

pIC50 [1] | pKd [2] | Structure (SMILES) | also measured
> 7.30 |  | CN(C/C=C/C(=O)N1CCC[C@@H](n2nc(-c3ccc(Oc4ccccc4)cc3)c3c(N)ncnc32)C1)CCOCCOCCOCCOCCOCCOCCOCCOCCON(C)C(=O)N1N=C(c2cc(F)ccc2F)SC1(CCCN)c1ccccc1 (stereo partly drawn) [Compound I-54] | 
6.30 to 7.30 | > 7.30 | CN(OCCOCCOCCOCCOCCOCCOCCOCCOCCOC/C=C/C(=O)N1CCC[C@@H](n2nc(-c3ccc(Oc4ccccc4)cc3)c3c(N)ncnc32)C1)C(=O)N1N=C(c2cc(F)ccc2F)SC1(CCCN)c1ccccc1 (stereo partly drawn) [Compound I-53] | 

From patent US20250136619A1, “HETEROBIFUNCTIONAL COMPOUNDS AND THEIR USE IN TREATING DISEASE” (HALDA THERAPEUTICS OPCO, INC., priority 2021, published 2025)
